Results: US20260041620A1, “NOVEL AMINO ACID BASED SALTS, COMPOSITIONS AND METHODS FOR TREATING SKIN AND IMPROVING SKIN REJUVENATION AND LONGEVITY” (Sytheon Ltd, priority 2023, published 2026)

Assays:
COX-2 [1] = biological target: T1, COX-2 (Homo sapiens, UniProt P35354)
T1 sequence (P35354 18-604): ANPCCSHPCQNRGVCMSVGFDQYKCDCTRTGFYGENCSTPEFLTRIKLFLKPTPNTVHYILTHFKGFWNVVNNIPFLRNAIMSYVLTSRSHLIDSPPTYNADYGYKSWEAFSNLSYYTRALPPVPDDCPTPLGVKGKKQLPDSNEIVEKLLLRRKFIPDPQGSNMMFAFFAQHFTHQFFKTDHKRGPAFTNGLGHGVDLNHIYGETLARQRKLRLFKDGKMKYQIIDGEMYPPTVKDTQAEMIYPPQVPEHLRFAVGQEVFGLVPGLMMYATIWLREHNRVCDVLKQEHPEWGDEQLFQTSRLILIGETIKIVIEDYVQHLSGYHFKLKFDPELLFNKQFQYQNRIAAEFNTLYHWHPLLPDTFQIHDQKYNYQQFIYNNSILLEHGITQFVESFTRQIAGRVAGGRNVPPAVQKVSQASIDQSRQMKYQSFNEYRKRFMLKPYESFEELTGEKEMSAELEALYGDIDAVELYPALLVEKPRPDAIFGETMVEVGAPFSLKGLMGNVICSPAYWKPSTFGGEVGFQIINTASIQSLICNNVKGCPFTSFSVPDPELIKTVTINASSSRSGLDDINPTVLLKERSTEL
Protocol: (§1) A 0.1 gram sample of each test material was dissolved in 1 mL propanediol make a stock solution, each of which was subject to 1 to 2 serial dilutions using buffer for use in determining the IC50 Testing and analysis was performed in accordance with the protocol of the COX-2 Kt (Cayman Catalog #701080) (Cayman catalog #62160).

Telomerase = Telomerase Activity Quantification qPCR Assay in human dermal fibroblasts; type: cell-based; details: three days
Protocol: Normal neonatal human dermal fibroblasts (HDF cat, #2310; ScienCell, Oceanside, CA) were grown to confluence in the 6 well plate format and incubated with the test substances identified in Table 3 for three days. Following incubation, the cells were lysed and telomerase activity was determined with Telomerase Activity Quantification qPCR Assay Kit from ScienCell (cat. #8928). Forget-Me-Not™ EvaGreen® qPCR Master Mix (Low ROX) (Biotium, Fremont, CA) was used for real-time quantitative PCR on C1000 Touch System with CFX384™ optical module Detection. For quantifying the level of activity, the Comparative Cq method was used, following the equation: […]
where TPS is telomere primer set, which recognizes and amplifies newly synthesized telomere sequences and Cq(TPS) is the Quantification Cycle Value obtained from the qPCR software. The relative telomerase activity difference between the experimental condition and control is expressed as 2^−ΔCq Telomerase activity was considered different if the level of expression was reasonably high (Cq≤33 cycles to detect), the difference vs. control was >2 fold and the p value, assessed with two-tailed Student test, was <0.05.

HDAC10 = biological target: T2, HDAC10 (Homo sapiens, UniProt Q969S8); details: reported, abcam; cited from earlier work
T2 sequence (Q969S8 1-669): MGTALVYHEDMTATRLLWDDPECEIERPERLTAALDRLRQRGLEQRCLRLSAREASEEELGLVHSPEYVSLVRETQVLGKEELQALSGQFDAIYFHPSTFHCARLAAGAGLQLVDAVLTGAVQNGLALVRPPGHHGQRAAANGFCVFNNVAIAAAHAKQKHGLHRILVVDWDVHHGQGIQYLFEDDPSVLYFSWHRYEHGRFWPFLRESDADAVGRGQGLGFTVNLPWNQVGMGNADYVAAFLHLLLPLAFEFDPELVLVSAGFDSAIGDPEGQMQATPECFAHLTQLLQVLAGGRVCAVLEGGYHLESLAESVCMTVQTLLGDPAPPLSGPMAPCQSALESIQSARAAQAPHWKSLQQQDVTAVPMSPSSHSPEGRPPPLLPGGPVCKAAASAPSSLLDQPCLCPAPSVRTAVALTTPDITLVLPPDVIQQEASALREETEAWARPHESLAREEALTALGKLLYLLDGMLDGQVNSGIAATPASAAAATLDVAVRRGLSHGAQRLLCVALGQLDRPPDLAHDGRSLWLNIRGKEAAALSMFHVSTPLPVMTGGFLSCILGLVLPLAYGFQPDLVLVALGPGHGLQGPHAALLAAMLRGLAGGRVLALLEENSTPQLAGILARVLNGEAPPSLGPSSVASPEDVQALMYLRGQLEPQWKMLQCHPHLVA

HDAC7 = biological target: T3, HDAC7 (Homo sapiens, UniProt Q8WUI4); details: reported, abcam; cited from earlier work
T3 sequence (Q8WUI4 1-952): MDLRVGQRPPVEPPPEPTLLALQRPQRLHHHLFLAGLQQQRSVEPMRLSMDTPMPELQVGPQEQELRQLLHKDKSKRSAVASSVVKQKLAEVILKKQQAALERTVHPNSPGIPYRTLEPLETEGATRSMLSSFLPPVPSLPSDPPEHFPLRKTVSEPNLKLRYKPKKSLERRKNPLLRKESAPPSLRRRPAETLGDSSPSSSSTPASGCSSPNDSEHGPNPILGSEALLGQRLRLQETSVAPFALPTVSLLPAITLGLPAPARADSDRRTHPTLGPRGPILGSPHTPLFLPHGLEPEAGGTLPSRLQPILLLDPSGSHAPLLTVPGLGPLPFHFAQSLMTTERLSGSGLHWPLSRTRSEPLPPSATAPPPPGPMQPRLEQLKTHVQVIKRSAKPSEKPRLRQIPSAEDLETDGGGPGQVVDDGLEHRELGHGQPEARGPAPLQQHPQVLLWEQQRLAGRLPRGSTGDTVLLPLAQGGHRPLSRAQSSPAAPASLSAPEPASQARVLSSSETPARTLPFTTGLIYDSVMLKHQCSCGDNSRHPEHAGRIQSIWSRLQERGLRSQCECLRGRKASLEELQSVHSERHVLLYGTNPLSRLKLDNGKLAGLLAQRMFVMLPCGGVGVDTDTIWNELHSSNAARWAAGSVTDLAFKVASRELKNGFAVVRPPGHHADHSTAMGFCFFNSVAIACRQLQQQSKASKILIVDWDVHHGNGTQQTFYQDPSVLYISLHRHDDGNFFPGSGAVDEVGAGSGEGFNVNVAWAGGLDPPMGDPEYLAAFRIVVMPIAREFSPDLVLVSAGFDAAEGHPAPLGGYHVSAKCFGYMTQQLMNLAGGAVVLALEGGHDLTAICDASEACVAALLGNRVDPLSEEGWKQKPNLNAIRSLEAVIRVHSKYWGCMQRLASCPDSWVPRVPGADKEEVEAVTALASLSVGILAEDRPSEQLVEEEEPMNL

HDAC2 = HDAC2 (Homo sapiens, UniProt Q92769); details: reported, abcam; cited from earlier work
Sequence of HDAC2 (Q92769 whole entry): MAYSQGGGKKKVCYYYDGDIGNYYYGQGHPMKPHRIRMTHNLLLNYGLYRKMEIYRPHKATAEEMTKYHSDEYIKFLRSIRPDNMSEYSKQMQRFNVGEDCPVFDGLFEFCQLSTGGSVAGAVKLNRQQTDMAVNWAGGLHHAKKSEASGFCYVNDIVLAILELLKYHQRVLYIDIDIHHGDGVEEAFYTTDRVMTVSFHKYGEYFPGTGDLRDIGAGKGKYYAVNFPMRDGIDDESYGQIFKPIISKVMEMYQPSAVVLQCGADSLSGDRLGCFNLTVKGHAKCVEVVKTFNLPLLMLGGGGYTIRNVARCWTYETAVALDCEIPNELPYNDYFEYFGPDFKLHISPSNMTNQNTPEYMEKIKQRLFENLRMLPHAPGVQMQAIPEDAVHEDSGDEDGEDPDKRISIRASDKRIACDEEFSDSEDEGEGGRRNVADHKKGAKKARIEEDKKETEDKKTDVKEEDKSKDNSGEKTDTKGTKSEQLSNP

COX-2 [2] = biological target: T1, COX-2; assay: biochemical
Protocol: as §1

CCCC(=O)NCCCCC(NC(=O)CCC)C(=O)[O-].CCCC(=O)NCCCCC(NC(=O)CCC)C(=O)[O-].[Ca+2] (stereo not drawn) [Ca di-(di-n-butyryl lysinate), calcium di-(di-n-butyryl lysinate)]
COX-2 IC50 (COX-2 [1]): 111.0 µg/mL

CCCC(=O)NCCCC[C@H](NC(=O)CCC)C(=O)[O-].CCCC(=O)NCCCC[C@H](NC(=O)CCC)C(=O)[O-].[Zn+2] [Zn di-(di-n-butyryl lysinate), Zinc di-(di-n-butyryl lysinate)]
COX-2 IC50 (COX-2 [1]): 82.3 µg/mL | Average Cq(TPS) (Telomerase; 10 μg/ml): 30.7 | Telomerase Activity (FC vs. water) (Telomerase; 10 μg/ml): 8.9 FC | ΔCq sample-water (Telomerase; 10 μg/ml): 3.2 | Average Cq(TPS) (Telomerase; 50 μg/ml): 30.0 | Telomerase Activity (FC vs. water) (Telomerase; 50 μg/ml): 14.6 FC | ΔCq sample-water (Telomerase; 50 μg/ml): 3.9

CCCC(=O)[O-].[Na+] [Sodium butyrate, reference compound]
inhibition of HDAC10 (HDAC10): no inhibition | IC50 (HDAC7): 300 µM | Average Cq(TPS) (Telomerase; 50 μg/ml): 34.3 | Telomerase Activity (FC vs. water) (Telomerase; 50 μg/ml): 0.7 FC | ΔCq sample-water (Telomerase; 50 μg/ml): −0.5 | Average Cq(TPS) (Telomerase; 100 μg/ml): 33.7 | Telomerase Activity (FC vs. water) (Telomerase; 100 μg/ml): 1.1 FC | ΔCq sample-water (Telomerase; 100 μg/ml): 0.1 | IC50 (HDAC2): 400 µM | IC50 (COX-2 [2]): 2.67 mM
